Here are results for 13 compounds from BindingDB's records for doi:10.1021/ja0277226 (Millennium Pharmaceuticals, 2002).

Test [1] has as its target Angiotensin-converting enzyme 2 (Homo sapiens, UniProt Q9BYF1). The test can be described thus: Enzyme Inhibition Assay. As to conditions: pH 6.5; 22 °C. As for the experimental part:
(§1) Enzyme assay was conducted in 384-well microplates format. Activity was monitored by measuring increase in fluorescence (excitation @320 nm, emission @405 nm) over a 60 minute time course using a BMG Polarstar Galaxy fluorescent plate reader. Compound IC50 values were determined using 10-pt concentration ranges. Rates of substrate hydrolysis were determined from time courses and converted to percent inhibition. Percent inhibition was plotted versus compound concentration and fit to the four parameter logistic equation by non-linear regression using Prism Graphpad software.

Test [2] concerns the target T1, Angiotensin-converting enzyme (Sus scrofa, UniProt A1YQ85).
T1 sequence (A1YQ85 whole entry): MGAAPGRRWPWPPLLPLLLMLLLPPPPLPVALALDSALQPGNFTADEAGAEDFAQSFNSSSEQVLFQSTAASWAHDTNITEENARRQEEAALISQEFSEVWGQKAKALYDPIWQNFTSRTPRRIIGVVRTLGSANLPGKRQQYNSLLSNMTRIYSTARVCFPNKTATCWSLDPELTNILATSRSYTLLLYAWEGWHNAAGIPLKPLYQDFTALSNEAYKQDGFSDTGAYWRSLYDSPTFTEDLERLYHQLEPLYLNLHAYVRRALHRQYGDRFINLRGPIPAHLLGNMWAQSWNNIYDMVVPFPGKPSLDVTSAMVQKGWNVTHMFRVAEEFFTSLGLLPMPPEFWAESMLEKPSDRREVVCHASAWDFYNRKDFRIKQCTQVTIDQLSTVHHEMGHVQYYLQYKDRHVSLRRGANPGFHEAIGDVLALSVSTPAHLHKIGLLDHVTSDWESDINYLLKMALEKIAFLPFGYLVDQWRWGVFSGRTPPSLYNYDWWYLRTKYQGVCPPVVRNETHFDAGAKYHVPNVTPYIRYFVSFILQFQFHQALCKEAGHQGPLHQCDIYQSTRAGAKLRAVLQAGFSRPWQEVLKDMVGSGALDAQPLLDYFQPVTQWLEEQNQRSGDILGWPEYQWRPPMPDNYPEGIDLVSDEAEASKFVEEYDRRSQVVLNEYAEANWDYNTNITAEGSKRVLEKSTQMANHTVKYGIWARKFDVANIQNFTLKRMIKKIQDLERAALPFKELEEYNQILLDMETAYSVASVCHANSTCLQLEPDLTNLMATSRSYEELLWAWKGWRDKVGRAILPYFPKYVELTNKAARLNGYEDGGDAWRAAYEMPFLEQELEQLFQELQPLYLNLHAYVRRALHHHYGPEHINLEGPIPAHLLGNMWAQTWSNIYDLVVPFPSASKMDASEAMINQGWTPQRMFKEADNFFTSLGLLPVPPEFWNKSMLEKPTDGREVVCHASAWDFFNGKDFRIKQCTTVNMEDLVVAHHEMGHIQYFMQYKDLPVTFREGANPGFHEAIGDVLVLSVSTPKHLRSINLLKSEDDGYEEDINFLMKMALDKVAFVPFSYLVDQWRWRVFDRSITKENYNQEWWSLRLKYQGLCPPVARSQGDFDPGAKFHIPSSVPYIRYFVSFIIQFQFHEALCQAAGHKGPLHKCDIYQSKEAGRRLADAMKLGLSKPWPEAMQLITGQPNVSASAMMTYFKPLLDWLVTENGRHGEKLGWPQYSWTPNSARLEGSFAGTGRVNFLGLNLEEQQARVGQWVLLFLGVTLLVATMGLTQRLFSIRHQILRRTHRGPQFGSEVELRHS
Description: Enzyme Inhibition Assay. The note with it: pH 7.5; 22 °C. As for the experimental part:
as §1

The target in the next test is T2, Carboxypeptidase A1 (Bos taurus, UniProt P00730).
T2 sequence (P00730 whole entry): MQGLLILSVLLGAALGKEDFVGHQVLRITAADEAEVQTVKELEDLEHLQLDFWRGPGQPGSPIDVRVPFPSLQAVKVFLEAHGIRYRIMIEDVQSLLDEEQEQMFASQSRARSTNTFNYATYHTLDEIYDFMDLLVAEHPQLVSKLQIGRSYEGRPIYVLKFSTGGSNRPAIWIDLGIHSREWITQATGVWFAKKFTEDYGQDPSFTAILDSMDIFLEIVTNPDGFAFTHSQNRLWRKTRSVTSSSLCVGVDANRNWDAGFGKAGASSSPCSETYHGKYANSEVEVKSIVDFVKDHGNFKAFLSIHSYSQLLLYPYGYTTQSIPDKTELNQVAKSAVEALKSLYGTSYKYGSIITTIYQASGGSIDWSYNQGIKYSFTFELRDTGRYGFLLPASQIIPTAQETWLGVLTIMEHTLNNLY
Description: CPA Inhibition Assay. The note with it: pH 7.5; 22 °C. Here is the method:
Assay for the inhibition of carboxypeptidase A (CPDA) was conducted in 96-well microplates format. Activity was monitored by measuring decrease in absorbance (328 nm) over a 15 minute time course using a Spectromax 250 absorbance plate reader. Compound IC50 values were determined using 10-pt concentration ranges. Rates of substrate hydrolysis were determined from time courses and converted to percent inhibition. Percent inhibition was plotted versus compound concentration and fit to the four parameter logistic equation by non-linear regression using Prism Graphpad software.

Chain of Angiotensin-converting enzyme 2 (Q9BYF1 whole entry): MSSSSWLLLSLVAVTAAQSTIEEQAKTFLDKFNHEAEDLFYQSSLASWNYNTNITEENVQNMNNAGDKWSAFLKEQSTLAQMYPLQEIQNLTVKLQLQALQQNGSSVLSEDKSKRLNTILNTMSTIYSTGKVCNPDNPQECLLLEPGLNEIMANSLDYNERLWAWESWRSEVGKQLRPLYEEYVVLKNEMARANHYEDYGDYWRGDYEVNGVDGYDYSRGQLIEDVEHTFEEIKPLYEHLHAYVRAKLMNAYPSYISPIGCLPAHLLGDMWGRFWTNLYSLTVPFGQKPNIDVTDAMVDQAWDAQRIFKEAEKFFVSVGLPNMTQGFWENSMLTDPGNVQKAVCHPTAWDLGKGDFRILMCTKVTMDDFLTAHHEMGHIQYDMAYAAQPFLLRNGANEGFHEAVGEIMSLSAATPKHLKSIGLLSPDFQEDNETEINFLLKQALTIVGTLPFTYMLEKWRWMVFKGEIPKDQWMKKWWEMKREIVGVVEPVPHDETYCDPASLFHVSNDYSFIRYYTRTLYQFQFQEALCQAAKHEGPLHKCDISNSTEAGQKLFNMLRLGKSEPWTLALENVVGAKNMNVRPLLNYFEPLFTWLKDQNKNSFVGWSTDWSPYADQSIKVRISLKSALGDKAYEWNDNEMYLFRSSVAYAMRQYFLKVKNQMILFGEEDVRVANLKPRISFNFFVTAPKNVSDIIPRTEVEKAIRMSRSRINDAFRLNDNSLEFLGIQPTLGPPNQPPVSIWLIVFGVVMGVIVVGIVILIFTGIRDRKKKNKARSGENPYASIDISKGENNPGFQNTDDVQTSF

On to `CC(C)C[C@H](N[C@@H](Cc1cncn1Cc1ccc(OC(F)(F)F)cc1)C(=O)O)C(=O)O` [(2S)-2-{[(1S)-1-carboxy-2-(1-{[4-(trifluoromethoxy)phenyl]methyl}-1H-imidazol-5-yl)ethyl]amino}-4-methylpentanoic acid], for which 52 nM corresponded to half-maximal inhibition in test [1] (IC50).

In the case of `CC(C)C[C@H](N[C@@H](Cc1cncn1C(C)(C)C1CCCCC1)C(=O)O)C(=O)O` [(2S)-2-{[(1S)-1-carboxy-2-[1-(2-cyclohexylpropan-2-yl)-1H-imidazol-5-yl]ethyl]amino}-4-methylpentanoic acid], the results for the IC50 (in test [2]; in test [1]; against Carboxypeptidase A1) were greater than 10000 nM, 10 nM and 12000 nM, respectively.

In the case of `CC(C)C[C@H](N[C@@H](Cc1cncn1CC1CCCCC1)C(=O)O)C(=O)O` [(2S)-2-{[(1S)-1-carboxy-2-[1-(cyclohexylmethyl)-1H-imidazol-5-yl]ethyl]amino}-4-methylpentanoic acid], in test [1], half-maximal inhibition (IC50) was put at 270 nM. This lies in the sub-micromolar range.

`Cc1ccccc1Cn1cncc1C[C@H](N[C@@H](CC(C)C)C(=O)O)C(=O)O` [(2S)-2-{[(1S)-1-carboxy-2-{1-[(2-methylphenyl)methyl]-1H-imidazol-5-yl}ethyl]amino}-4-methylpentanoic acid] showed an IC50 in test [1] of 290 nM.

As for `Cc1ccc(Cn2cncc2C[C@H](N[C@@H](CC(C)C)C(=O)O)C(=O)O)cc1C` [(2S)-2-{[(1S)-1-carboxy-2-{1-[(3,4-dimethylphenyl)methyl]-1H-imidazol-5-yl}ethyl]amino}-4-methylpentanoic acid], the half-inhibitory concentration (IC50) was greater than 10000 nM in test [2], 10 nM in test [1] and greater than 10000 nM at Carboxypeptidase A1.

For the compound `Cc1cc(C)cc(Cn2cncc2C[C@H](N[C@@H](CC(C)C)C(=O)O)C(=O)O)c1` [(2S)-2-{[(1S)-1-carboxy-2-{1-[(3,5-dimethylphenyl)methyl]-1H-imidazol-5-yl}ethyl]amino}-4-methylpentanoic acid], the IC50 in test [2] is greater than 10000 nM; in test [1], 1.4 nM; against Carboxypeptidase A1, greater than 10000 nM.

As to `Cc1cccc(Cn2cncc2C[C@H](N[C@@H](CC(C)C)C(=O)O)C(=O)O)c1` [(2S)-2-{[(1S)-1-carboxy-2-{1-[(3-methylphenyl)methyl]-1H-imidazol-5-yl}ethyl]amino}-4-methylpentanoic acid], the IC50 in test [2] is greater than 10000 nM; in test [1] it was 4.2 nM; against Carboxypeptidase A1, greater than 10000 nM.

`CC(C)C[C@H](N[C@@H](Cc1cncn1Cc1ccc(Cl)cc1)C(=O)O)C(=O)O` [(2S)-2-{[(1S)-1-carboxy-2-{1-[(4-chlorophenyl)methyl]-1H-imidazol-5-yl}ethyl]amino}-4-methylpentanoic acid]: the 50% inhibitory concentration (IC50) is 21 nM in test [1] and greater than 10000 nM at Carboxypeptidase A1.

In the case of `Cc1ccc(Cn2cncc2C[C@H](N[C@@H](CC(C)C)C(=O)O)C(=O)O)cc1` [(2S)-2-{[(1S)-1-carboxy-2-{1-[(4-methylphenyl)methyl]-1H-imidazol-5-yl}ethyl]amino}-4-methylpentanoic acid], the figures for the IC50 (in test [2]; in test [1]; at Carboxypeptidase A1) were greater than 10000 nM, 32 nM and greater than 10000 nM, respectively.

In test [1], `CC(C)C[C@H](N[C@@H](Cc1cncn1Cc1ccc([N+](=O)[O-])cc1)C(=O)O)C(=O)O` [(2S)-2-{[(1S)-1-carboxy-2-{1-[(4-nitrophenyl)methyl]-1H-imidazol-5-yl}ethyl]amino}-4-methylpentanoic acid] yielded an IC50 of 76 nM.

As for `O=C(O)[C@H](Cc1ccccc1)N[C@@H](Cc1cncn1Cc1ccccc1)C(=O)O` [(2S)-2-{[(1S)-2-(1-benzyl-1H-imidazol-5-yl)-1-carboxyethyl]amino}-3-phenylpropanoic acid], the IC50 in test [1] turned out to be 340 nM. Compared with the last compound, the IC50 is about 4.5-fold higher.

In the case of `CC[C@H](N[C@@H](Cc1cncn1Cc1ccccc1)C(=O)O)C(=O)O` [(2S)-2-{[(1S)-2-(1-benzyl-1H-imidazol-5-yl)-1-carboxyethyl]amino}butanoic acid], the IC50 in test [1] came out at 300 nM; on Carboxypeptidase A1, 2800 nM.

As to `CC(C)C[C@H](N[C@@H](Cc1cncn1Cc1cc(Cl)cc(Cl)c1)C(=O)O)C(=O)O` [MLN4760], the values for the IC50 (in test [2]; in test [1]; on Carboxypeptidase A1) were greater than 100000 nM, 0.44 nM and 27000 nM, respectively.

As a reminder, the IC50 is the concentration needed to halve the response being measured. A high value points to a need for much substance.
